Where “and” joins values, the source holds several entries; their conditions need not be identical. Equal values may be shown once.
Assay: Quantitation of PMO in plasma of cynomolgus monkeys following i.v. injection (anion exchange HPLC of the duplex with 5'-fluorescein labeled DNA)
Format: in vivo
Procedure: • HPLC conditions: • Column: Dionex DNA Pac™ PA-100 (250×4 mm, 15μ particle size) • Mobile Phases: A: 0.025 M Tris (pH 9); B: 0.025 M Tris (pH 9)/1 M NaCl • Gradient: A:B:C 90/10 @ 0 min to 55/45 @ 20 min • Flow Rate: 1.5 mL/min • Wavelength: 494 nm excitation; 518 detection • Temperature: 25° C.
Cynomolgus monkeys were injected i.v. with the analyte PMO, and blood samples were taken at various time intervals, as shown in Table 2. In a typical analysis, 200 μL of plasma was combined with a known amount (e.g. 500 ng) of internal standard (FIG. 11) in 10 μL of 0.025 M Tris buffer, pH 8-9. Methanol (200.0 μL) was added, and the sample was mixed using a vortex mixer. The precipitate was removed with the aid of high speed centrifugation. The supernatant was removed and the pellet washed with 100 μL Tris buffer; the wash was added to the supernatant. The mixture was heated at 70° C. for a period of 10 minutes, and the sample was once again subjected to high speed centrifugation. The supernatant was transferred and lyophilized to dryness. The dry material was reconstituted with a 100.0 μL aliquot of DNA (5′-fluorescein labeled) in 0.025 M Tris (pH 8-9) and transferred to an autosampler vial, and the entire sample was injected onto the HPLC column and analyzed.
A calibration was performed by analysis of plasma standards containing from 250 to 20,000 ng of AVI-4126. The data were plotted as the ratio of analyte to internal standard signal intensities versus the ratio of analyte to internal standard concentrations.
The level detected in this assay was 10.0 ng analyte, which corresponded to 50 ng/mL. The sensitivity of this method thus far exceeds the detection and quantitation limits of UV based methods.

PMO: PMO (phosphorodiamidate morpholino oligomer) having the sequence ACGTTGAGGGGCATCGTCGC (SEQ ID NO: 1), antisense to human c-myc (antisense ACGTTGAGGGGCATCGTCGC; all phosphorodiamidate morpholino (PMO))
level detected in representative assay (FIG. 12), amount of analyte (200 μL plasma sample, representative assay, time point not stated): 10.0 ng | level detected in representative assay (FIG. 12), plasma concentration (corresponds to 10.0 ng analyte in plasma sample, time point not stated): 50 ng/mL | Quantitation of PMO in plasma, 10 min (cynomolgus monkey plasma, i.v. injection, 10 min, one value per monkey ID): 92.505 µg/mL and 105.37 µg/mL and 105.685 µg/mL | Quantitation of PMO in plasma, 2 h (cynomolgus monkey plasma, i.v. injection, 2 h, one value per monkey ID): 49.895 µg/mL and 68.025 µg/mL and 49.755 µg/mL | Quantitation of PMO in plasma, 6 hr (cynomolgus monkey plasma, i.v. injection, 6 hr, one value per monkey ID): 29.81 µg/mL and 45.33 µg/mL and 32.015 µg/mL | Quantitation of PMO in plasma, 24 hr (cynomolgus monkey plasma, i.v. injection, 24 hr, one value per monkey ID): 17.575 µg/mL and 14.895 µg/mL and 12.645 µg/mL

Reference: patent publication US7264925B2, “Method for analysis of oligonucleotide analogs” (AVI BioPharma, Inc., priority 2000, dated 2007)
